Test results reported in patent US12590062B2, “PD-1/PD-L1 inhibitors” (Gilead Sciences, Inc., priority 2017, dated 2026).

What was measured:
PD-1/PD-L1 = PD-1/PD-L1 (Homo sapiens, UniProt Q9NZQ7); test: PD-1/PD-L1 biochemical protein-protein interaction assay (ALPHA); assay type: binding; settings: 0.3 nM His tagged PD-L1, 2.5 nM biotinylated Fc-PD-1, 60 minutes at 25° C., read-out: IC50 PD-L1-PD-1 Alpha IC50-mono PD-L1-fcP-D1
How it was run: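 Final concentrations 0.3 nM His-tagged PD-L1 and 2.5 nM biotinylated Fc-PD-1 (extracellular domains) were reacted with compound for 60 min at 25° C in pH 7.4 Hepes/NaCl/EDTA/Tween/BSA buffer. Binding was then detected by ALPHA beads, and IC50 values were taken from four-parameter curve fitting.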

PD-1/PD-L1 interaction = biological target: T1, PD-1/PD-L1 interaction (Homo sapiens, UniProt Q9NZQ7); test: PD-1/PD-L1 NFAT reporter co-culture assay; assay type: cell-based; settings: Jurkat PD-1 NFAT-luciferase cells co-cultured with aAPC-PD-L1 CHO cells, 6 hrs at 37° C.; read-out: EC50 NFAT Luciferase
T1 construct: expressed in transfected cells; host or cells: CHO cells (aAPC-PD-L1) co-cultured with Jurkat cells overexpressing PD-1 and an NFAT-luciferase reporter
How it was run: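 CHO aAPC-PD-L1 seeded overnight; PD-1/NFAT-luc Jurkat + cpd in RPMI 1640, 2% FBS added at once; 6 h, 37 °C; ONE-Glo luminescence; EC50, 4-parameter fit.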

T1 sequence (Q9NZQ7 19-290): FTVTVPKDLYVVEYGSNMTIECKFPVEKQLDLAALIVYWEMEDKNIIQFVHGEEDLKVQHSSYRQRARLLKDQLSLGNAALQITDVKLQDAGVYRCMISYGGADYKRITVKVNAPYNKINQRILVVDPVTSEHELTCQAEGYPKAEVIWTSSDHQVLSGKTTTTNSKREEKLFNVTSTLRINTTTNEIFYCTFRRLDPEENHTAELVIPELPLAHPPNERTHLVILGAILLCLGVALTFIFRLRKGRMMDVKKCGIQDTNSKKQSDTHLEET
Chain of PD-1/PD-L1 (Q9NZQ7 19-238 limits assumed): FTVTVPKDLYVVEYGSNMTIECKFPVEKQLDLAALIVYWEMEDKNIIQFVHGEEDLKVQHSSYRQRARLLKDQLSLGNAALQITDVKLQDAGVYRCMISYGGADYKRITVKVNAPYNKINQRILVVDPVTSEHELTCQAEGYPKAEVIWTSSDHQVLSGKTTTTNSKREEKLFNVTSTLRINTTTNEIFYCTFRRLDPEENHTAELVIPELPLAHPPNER

| SMILES | IC50 (PD-1/PD-L1) | EC50 (PD-1/PD-L1 interaction) |
| --- | --- | --- |
| COc1nc(/C=C/c2cccc(-c3cccc(/C=C/c4ccc(CNC[C@@H](O)CC(=O)O)c(OC)n4)c3C)c2C)ccc1CNC[C@@H](O)CC(=O)O [Example 238, (3S,3′S)-4,4′-(((((1E,1′E)-(2,2′-dimethyl-[1,1′-biphenyl]-3,3′-diyl)bis(ethene-2,1-diyl))bis(2-methoxypyridine-6,3-diyl))bis(methylene))bis(azanediyl))bis(3-hydroxybutanoic acid)] | 0.9 nM | 2120 nM |
| COc1nc(/C=C/c2cccc(-c3cccc(/C=C/c4nc(OC)c(CNC[C@@H](O)CC(=O)O)cc4Cl)c3C)c2C)c(Cl)cc1CNC[C@@H](O)CC(=O)O [Example 239, (3S,3′S)-4,4′-(((((1E,1′E)-(2,2′-dimethyl-[1,1′-biphenyl]-3,3′-diyl)bis(ethene-2,1-diyl))bis(5-chloro-2-methoxypyridine-6,3-diyl))bis(methylene))bis(azanediyl))bis(3-hydroxybutanoic acid)] | 8.1 nM | 1120 nM |
| Cc1cc(OCc2cccc(-c3cccc(COc4cc(C)c(CNC[C@@H](O)CC(=O)O)c(OCc5cncc(C#N)c5)c4)c3C)c2C)cc(OCc2cncc(C#N)c2)c1CNC[C@@H](O)CC(=O)O [Example 246, (3S,3′S)-4,4′-((((((2,2′-dimethyl-[1,1′-biphenyl]-3,3′-diyl)bis(methylene))bis(oxy))bis(2-((5-cyanopyridin-3-yl)methoxy)-6-methyl-4,1-phenylene))bis(methylene))bis(azanediyl))bis(3-hydroxybutanoic acid)] | 1 nM | 1200 nM |
| CC(=O)NCCNCc1ccc(OCc2cccc(-c3cccc(COc4ccc(CNCCNC(C)=O)c(-c5cncc(C#N)c5)c4)c3C)c2C)cc1-c1cncc(C#N)c1 [Example 250, N,N′-(((((((2,2′-dimethyl-[1,1′-biphenyl]-3,3′-diyl)bis(methylene))bis(oxy))bis(2-(5-cyanopyridin-3-yl)-4,1-phenylene))bis(methylene))bis(azanediyl))bis(ethane-2,1-diyl))diacetamide] | 63.6 nM | 7490 nM |
| Cc1c(COc2ccc(CNC[C@@H](O)CC(=O)O)c(OCc3cncc(C#N)c3)n2)cccc1-c1cccc(COc2ccc(CNC[C@@H](O)CC(=O)O)c(=O)n2Cc2cncc(C#N)c2)c1C [Example 251, (S)-4-(((6-((3′-(((5-((((S)-3-carboxy-2-hydroxypropyl)amino)methyl)-1-((5-cyanopyridin-3-yl)methyl)-6-oxo-1,6-dihydropyridin-2-yl)oxy)methyl)-2,2′-dimethyl-[1,1′-biphenyl]-3-yl)methoxy)-2-((5-cyanopyridin-3-yl)methoxy)pyridin-3-yl)methyl)amino)-3-hydroxybutanoic acid] | 2 nM | 25900 nM |
| Cc1c(COc2nc(OCc3cncc(C#N)c3)c(CNC[C@H](O)CC(=O)O)cc2Br)cccc1-c1cccc(COc2nc(OCc3cncc(C#N)c3)c(CNC[C@H](O)CC(=O)O)cc2Br)c1C [Example 252, (3R,3′R)-4,4′-((((((2,2′-dimethyl-[1,1′-biphenyl]-3,3′-diyl)bis(methylene))bis(oxy))bis(5-bromo-2-((5-cyanopyridin-3-yl)methoxy)pyridine-6,3-diyl))bis(methylene))bis(azanediyl))bis(3-hydroxybutanoic acid)] | 0.3 nM | 333 nM |
| COc1ccc(COc2nc(OCc3cccc(-c4cccc(COc5nc(OCc6ccc(OC)nc6)c(CNC[C@@H](O)CC(=O)O)cc5Br)c4C)c3C)c(Br)cc2CNC[C@@H](O)CC(=O)O)cn1 [Example 253, (3S,3′S)-4,4′-((((((2,2′-dimethyl-[1,1′-biphenyl]-3,3′-diyl)bis(methylene))bis(oxy))bis(5-bromo-2-((6-methoxypyridin-3-yl)methoxy)pyridine-6,3-diyl))bis(methylene))bis(azanediyl))bis(3-hydroxybutanoic acid)] | 4.6 nM | 304 nM |
| Cc1c(COc2cc(OCc3cncc(C#N)c3)c(CNCCO)cc2Br)cccc1-c1cccc(COc2cc(OCc3cncc(C#N)c3)c(CNCCO)cc2Br)c1C [Example 254, 5,5′-((((((2,2′-dimethyl-[1,1′-biphenyl]-3,3′-diyl)bis(methylene))bis(oxy))bis(4-bromo-6-(((2-hydroxyethyl)amino)methyl)-3,1-phenylene))bis(oxy))bis(methylene))dinicotinonitrile] | 20.8 nM | 689 nM |
| Cc1c(COc2cc(OCc3cncc(C#N)c3)c(CNC[C@@H](O)CO)cc2Br)cccc1-c1cccc(COc2cc(OCc3cncc(C#N)c3)c(CNC[C@@H](O)CO)cc2Br)c1C [Example 257, 5,5′-((((((2,2′-dimethyl-[1,1′-biphenyl]-3,3′-diyl)bis(methylene))bis(oxy))bis(4-bromo-6-((((R)-2,3-dihydroxypropyl)amino)methyl)-3,1-phenylene))bis(oxy))bis(methylene))dinicotinonitrile] | 24 nM | 657 nM |
| Cc1c(COc2cc(OCc3cncc(C#N)c3)c(CN3CC[C@@H]3CO)cc2Br)cccc1-c1cccc(COc2cc(OCc3cncc(C#N)c3)c(CN3CC[C@@H]3CO)cc2Br)c1C [Example 258, 5,5′-((((((2,2′-dimethyl-[1,1′-biphenyl]-3,3′-diyl)bis(methylene))bis(oxy))bis(4-bromo-6-(((R)-2-(hydroxymethyl)azetidin-1-yl)methyl)-3,1-phenylene))bis(oxy))bis(methylene))dinicotinonitrile] | 6.3 nM | 419 nM |
| Cc1c(COc2cc(OCc3cncc(C#N)c3)c(CNC[C@H](O)CO)cc2Br)cccc1-c1cccc(COc2cc(OCc3cncc(C#N)c3)c(CNC[C@H](O)CO)cc2Br)c1C [Example 259, 5,5′-((((((2,2′-dimethyl-[1,1′-biphenyl]-3,3′-diyl)bis(methylene))bis(oxy))bis(4-bromo-6-((((S)-2,3-dihydroxypropyl)amino)methyl)-3,1-phenylene))bis(oxy))bis(methylene))dinicotinonitrile] | 22.7 nM | 511 nM |
| Cc1c(COc2cc(OCc3cncc(C#N)c3)c(CNCc3ncc[nH]3)cc2Br)cccc1-c1cccc(COc2cc(OCc3cncc(C#N)c3)c(CNCc3ncc[nH]3)cc2Br)c1C [Example 261, 5,5′-((((((2,2′-dimethyl-[1,1′-biphenyl]-3,3′-diyl)bis(methylene))bis(oxy))bis(6-((((1H-imidazol-2-yl)methyl)amino)methyl)-4-bromo-3,1-phenylene))bis(oxy))bis(methylene))dinicotinonitrile] | 120 nM | 3170 nM |
| Cc1c(COc2cc(OCc3nccs3)c(CNC[C@@H](O)CC(=O)O)cc2Cl)cccc1-c1cccc(COc2cc(OCc3nccs3)c(CNC[C@@H](O)CC(=O)O)cc2Cl)c1C [Example 262, (3S,3′S)-4,4′-((((((2,2′-dimethyl-[1,1′-biphenyl]-3,3′-diyl)bis(methylene))bis(oxy))bis(5-chloro-2-(thiazol-2-ylmethoxy)-4,1-phenylene))bis(methylene))bis(azanediyl))bis(3-hydroxybutanoic acid)] | 1.5 nM | 8620 nM |
| COc1nc(OCc2cccc(-c3cccc(COc4nc(OC)c(CNC[C@@H](O)CC(=O)O)cc4S(C)(=O)=O)c3C)c2C)c(S(C)(=O)=O)cc1CNC[C@@H](O)CC(=O)O [Example 263, (3S,3′S)-4,4′-((((((2,2′-dimethyl-[1,1′-biphenyl]-3,3′-diyl)bis(methylene))bis(oxy))bis(2-methoxy-5-(methylsulfonyl)pyridine-6,3-diyl))bis(methylene))bis(azanediyl))bis(3-hydroxybutanoic acid)] | 1.8 nM | 36400 nM |
| Cc1c(COc2ccc(CNC[C@@H](O)CC(=O)O)c(OCc3cc(C#N)ccc3F)c2)cccc1-c1cccc(COc2ccc(CNC[C@@H](O)CC(=O)O)c(OCc3cc(C#N)ccc3F)c2)c1C [Example 265, (3S,3′S)-4,4′-((((((2,2′-dimethyl-[1,1′-biphenyl]-3,3′-diyl)bis(methylene))bis(oxy))bis(2-((5-cyano-2-fluorobenzyl)oxy)-4,1-phenylene))bis(methylene))bis(azanediyl))bis(3-hydroxybutanoic acid)] | 3.2 nM | 7060 nM |
| N#Cc1cncc(COc2cc(C(=O)N3CCc4c(-c5cccc6c5CCN6C(=O)c5ccc(CNC[C@@H](O)CC(=O)O)c(OCc6cncc(C#N)c6)c5)cccc43)ccc2CNC[C@@H](O)CC(=O)O)c1 [Example 267, (3S,3′S)-4,4′-(((([4,4′-biindoline]-1,1′-dicarbonyl)bis(2-((5-cyanopyridin-3-yl)methoxy)-4,1-phenylene))bis(methylene))bis(azanediyl))bis(3-hydroxybutanoic acid)] | 1.1 nM | 8540 nM |
| Cc1c(COc2nc(OCc3ccc(N4CCOCC4)nc3)c(CNC[C@@H](O)CC(=O)O)cc2Br)cccc1-c1cccc(COc2nc(OCc3ccc(N4CCOCC4)nc3)c(CNC[C@@H](O)CC(=O)O)cc2Br)c1C [Example 269, (3S,3′S)-4,4′-((((((2,2′-dimethyl-[1,1′-biphenyl]-3,3′-diyl)bis(methylene))bis(oxy))bis(5-bromo-2-((6-morpholinopyridin-3-yl)methoxy)pyridine-6,3-diyl))bis(methylene))bis(azanediyl))bis(3-hydroxybutanoic acid)] | 12.3 nM | ≥ 50000 nM |
